Test results: US9084765B2, “Use of amisulpride as an anti-emetic” (Acacia Pharma Limited, priority 2010, dated 2015)
“Also recorded” adds a separate entry of the source.

How the values were obtained:
[1] = test system: ferrets challenged with cisplatin; experiment: Cisplatin-induced emesis in ferrets; format: in vivo, ferret
Procedure: Amisulpride, white powder, was dissolved in dimethylsulfoxide and then diluted in physiological saline. For vehicle control, physiological saline was used for s,c, administration (apomorphine experiments) and 8.3% DMSO in physiological saline was used for i.v. administration (morphine, cisplatin). […] Cisplatinum II diamine dichloride, yellow powder, was dispersed in 0.2% hydroxymethylcellulose in physiological saline. The method used to test antiemetic activity preclinically follows that described by Gardner et al. (Brit. J. Pharmacol., 116: 3158-3163, 1995) and uses ferrets. Sixty minutes before administration of the test substance, ferrets are placed in individual stainless steel cages (40×50×34 cm) with a grid floor. Then, the animals are challenged with apomorphine (0.25 mg/kg s.c.), morphine (0.4 mg/kg i.p.) or cisplatin (10 mg/kg i.p.) and immediately observed over at least a 2-hour period. Parameters recorded include: number of ferrets showing retches and vomits; latency to first retching; latency to first vomiting; number of retches; vomiting (number of vomits); number of emesis periods and mean duration of emesis periods. Retching is defined as a rhythmic respiratory movement against a closed glottis, while vomiting is defined as a forced expulsion of upper gastrointestinal contents. […]

[2] = test system: ferrets challenged with apomorphine; experiment: Apomorphine-induced emesis in ferrets; format: in vivo, ferret; conditions: 2 hour observation
Procedure: (§1) Amisulpride, white powder, was dissolved in dimethylsulfoxide and then diluted in physiological saline. For vehicle control, physiological saline was used for s,c, administration (apomorphine experiments) and 8.3% DMSO in physiological saline was used for i.v. administration (morphine, cisplatin). Apomorphine hydrochloride hemihydrates, white powder, was dissolved in physiological saline. The method used to test antiemetic activity preclinically follows that described by Gardner et al. (Brit. J. Pharmacol., 116: 3158-3163, 1995) and uses ferrets. Sixty minutes before administration of the test substance, ferrets are placed in individual stainless steel cages (40×50×34 cm) with a grid floor. Then, the animals are challenged with apomorphine (0.25 mg/kg s.c.), morphine (0.4 mg/kg i.p.) or cisplatin (10 mg/kg i.p.) and immediately observed over at least a 2-hour period. Parameters recorded include: number of ferrets showing retches and vomits; latency to first retching; latency to first vomiting; number of retches; vomiting (number of vomits); number of emesis periods and mean duration of emesis periods. Retching is defined as a rhythmic respiratory movement against a closed glottis, while vomiting is defined as a forced expulsion of upper gastrointestinal contents. […]

[3] = test system: ferrets challenged with morphine; experiment: Morphine-induced emesis in ferrets; format: in vivo, ferret
Procedure: as §1, with “Morphine hydrochloride,” for “Apomorphine hydrochloride hemihydrates,”

[4] = test system: apomorphine-induced vomiting in the dog; conditions: reported in U.S. Pat. No. 4,294,828; cited from earlier work
[5] = reported in the UKPAR (Special Warnings and Precautions for Use); cited from earlier work

For `CCN1CCCC1CNC(=O)c1cc(S(=O)(=O)CC)c(N)cc1OC` (centres unmarked) [Amisulpride], the “efficacy compared with droperidol” value ([1]; amisulpride 0.6 mg/kg (one animal excluded) and 2 mg/kg versus droperidol 3 mg/kg given 5 minutes before cisplatin) was “better than droperidol at 3 mg/kg; also recorded: more effective than droperidol at 3 mg/kg”, the “effect on emetic effects of cisplatin” value ([1]; i.v. before cisplatin, 72 hour period, versus vehicle control) was “reduces the emetic effects of cisplatin, in dose-dependent manner” and the “effect on apomorphine emesis” value ([2]; amisulpride 10 μg/kg s.c.) was “totally inhibited”. For the same compound, the “effect on apomorphine emesis” value ([2]; amisulpride 100 μg/kg s.c.) was “totally inhibited”, the incidence of vomits ([3]; amisulpride 3 mg/kg i.v. before morphine 0.4 mg/kg i.p.) was “abolished” and the “effect on emetic effects induced by morphine” value ([3]; i.v. 5 minutes before morphine, 2 hour observation, versus vehicle control) was “reduces the emetic effects induced by morphine, in dose-dependent manner”. The apomorphine-induced vomiting [4] was “inhibit apomorphine-induced vomiting in the dog” and the “prolongation of the QT interval” value [5] was “induces a dose dependent prolongation of the QT interval”.
